Reference: BindingDB's records for doi:10.1111/cbdd.12675 (Quaid-I-Azam University, 2016)

Molecular target: Urease (Canavalia ensiformis, UniProt P07374)
Test: Urease Inhibition Assay
Conditions: pH 8.2
Procedure: The urease inhibitory activity of synthesized sulfonamides (3a-j) was determined by measuring the amount of ammonia produced by the indophenols method described byWeatherburn (27,28). The reaction mixtures, comprising 20 µL of enzyme (Jack bean urease, 5 U/mL) and 20 µL of test compounds in 50 µL buffer (100 mM urea, 0.01 MK2HPO4, 1 mM EDTA and 0.01 M […], pH 8.2), were incubated for 10 min at 37 °C in 96-well plate. Briefly, 40 µL each of phenol reagents (1%, w/v phenol and0.005%, w/v sodium nitroprusside) and 70 µL of alkali reagent (0.5%, w/v NaOH and 0.1% active chloride NaOCl) were added to each well. […] All reactions were performed in triplicate.

Chain of Urease (P07374 whole entry): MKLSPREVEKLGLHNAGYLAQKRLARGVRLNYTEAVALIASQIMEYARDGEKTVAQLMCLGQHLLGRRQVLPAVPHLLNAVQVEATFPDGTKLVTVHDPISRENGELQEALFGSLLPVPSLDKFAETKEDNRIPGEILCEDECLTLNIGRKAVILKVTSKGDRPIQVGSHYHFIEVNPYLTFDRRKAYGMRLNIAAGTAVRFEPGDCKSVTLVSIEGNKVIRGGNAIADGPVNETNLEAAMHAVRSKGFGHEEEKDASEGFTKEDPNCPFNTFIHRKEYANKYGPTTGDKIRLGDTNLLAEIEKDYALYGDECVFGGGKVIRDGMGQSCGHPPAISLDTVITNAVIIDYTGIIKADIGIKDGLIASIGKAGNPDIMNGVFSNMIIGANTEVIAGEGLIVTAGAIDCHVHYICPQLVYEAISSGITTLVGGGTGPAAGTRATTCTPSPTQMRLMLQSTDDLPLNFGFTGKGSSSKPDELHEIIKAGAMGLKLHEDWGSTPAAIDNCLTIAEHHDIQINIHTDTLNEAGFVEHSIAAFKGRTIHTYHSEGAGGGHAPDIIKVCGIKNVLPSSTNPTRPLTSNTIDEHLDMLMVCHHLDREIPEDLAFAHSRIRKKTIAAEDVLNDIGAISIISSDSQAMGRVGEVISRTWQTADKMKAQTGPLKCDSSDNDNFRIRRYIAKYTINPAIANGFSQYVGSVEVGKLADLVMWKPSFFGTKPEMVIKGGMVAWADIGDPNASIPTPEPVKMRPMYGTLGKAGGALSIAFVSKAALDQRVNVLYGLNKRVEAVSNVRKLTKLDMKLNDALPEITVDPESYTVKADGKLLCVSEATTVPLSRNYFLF

Row | SMILES | IC50
1 | Cc1cs/c(=N\C(=O)c2ccccc2)n1-c1ccc(S(N)(=O)=O)cc1 [(Z)-N-(3-(4-aminosulfonylphenyl)-4-methylthiazol-2(3H)-ylidene) benzamide (3a)] | 96 nM
2 | COc1cccc(C(=O)/N=c2\scc(C)n2-c2ccc(S(N)(=O)=O)cc2)c1 [(Z)-N-(3-(4-aminosulfonylphenyl)-4-methylthiazol-2(3H)-ylidene)-3-methoxybenzamide (3g)] | 81 nM
3 | Cc1ccccc1C(=O)/N=c1\scc(C)n1-c1ccc(S(N)(=O)=O)cc1 [(Z)-N-(3-(4-aminosulfonylphenyl)-4-methylthiazol-2(3H)-ylidene)-2-methylbenzamide (3b)] | 87 nM
4 | Cc1cccc(C(=O)/N=c2\scc(C)n2-c2ccc(S(N)(=O)=O)cc2)c1 [(Z)-N-(3-(4-aminosulfonylphenyl)-4-methylthiazol-2(3H)-ylidene)-3-methylbenzamide (3c)] | 87 nM
5 | Cc1cs/c(=N\C(=O)c2ccccc2[N+](=O)[O-])n1-c1ccc(S(N)(=O)=O)cc1 [(Z)-N-(3-(4-aminosulfonylphenyl)-4-methylthiazol-2(3H)-ylidene)-2-nitrobenzamide (3f)] | 350 nM
6 | Cc1cs/c(=N\C(=O)c2ccco2)n1-c1ccc(S(N)(=O)=O)cc1 [(Z)-N-(3-(4-aminosulfonylphenyl)-4-methylthiazol-2(3H)-ylidene) furan-2-carboxamide (3j)] | 83 nM
7 | Cc1ccc(C(=O)/N=c2\scc(C)n2-c2ccc(S(N)(=O)=O)cc2)cc1 [(Z)-N-(3-(4-aminosulfonylphenyl)-4-methylthiazol-2(3H)-ylidene)-4-methylbenzamide (3d)] | 72 nM
8 | Cc1cs/c(=N\C(=O)c2cccc(F)c2)n1-c1ccc(S(N)(=O)=O)cc1 [(Z)-N-(3-(4-aminosulfonylphenyl)-4-methylthiazol-2(3H)-ylidene)-3-fluorobenzamide (3h)] | 64 nM
9 | Cc1cs/c(=N\C(=O)c2ccc([N+](=O)[O-])cc2Cl)n1-c1ccc(S(N)(=O)=O)cc1 [(Z)-N-(3-(4-aminosulfonylphenyl)-4-methylthiazol-2(3H)-ylidene)-2-chloro-4-nitrobenzamide (3i)] | 58 nM
10 | Cc1cs/c(=N\C(=O)c2ccc([N+](=O)[O-])cc2)n1-c1ccc(S(N)(=O)=O)cc1 [(Z)-N-(3-(4-aminosulfonylphenyl)-4-methylthiazol-2(3H)-ylidene)-4-nitrobenzamide (3e)] | 83 nM
